Reference: the supplement of paper PMC11451515

How the values were obtained:
Details in all cases: 48 h
SEM cells [1] = experiment: AUC of viability dose-response curve (% viability x log10 dose units); higher = less sensitive
Procedure, shortened: (§1)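 Seeding of medium-adapted leukemia cells was at 500 or 1000 cells/well in 1536-well plates, followed by 48 h at 37°C with library compounds in DMSO at 11 threefold doses from 47 μM to 0.79 nM. CellTiter-Glo One luminescence was normalised per plate to DMSO and cell-free wells and fitted as a four-parameter log-logistic function of log10 dose. Area under the curve was integrated by trapezoidal rule, with curves exceeding full viability scaled and curves failing quality control removed.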

NOMO1 [2] = experiment: as above
Procedure, shortened: as §1

P12-Ichikawa [3] = experiment: as above
Procedure, shortened: as §1

SEM cells [4] = experiment: cell viability relative to DMSO control; higher = less cytotoxic
Procedure, shortened: (§2)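 Viability values are per-plate percentages of DMSO wells, with background from cell-free wells. Library compounds in DMSO were pin-dosed, in an 11-point threefold series from 47 μM to 0.79 nM, onto NOMO1 or SEM (500 cells/well) or P12-Ichikawa (1000 cells/well) leukemia cells in 1536-well plates (5 μl). Those cells had been adapted for at least four passages in each medium, and CellTiter-Glo One luminescence was read after 48 h at 37°C.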

NOMO1 [5] = experiment: as above
Procedure, shortened: as §2

P12-Ichikawa [6] = experiment: as above
Procedure, shortened: as §2

C[C@]12CC[C@H]3[C@@H](CCC/4=C/C(=O)CC[C@]34C)[C@@H]1CC[C@@H]2OC(=O)CCC5CCCC5
AUC of viability dose-response curve
Details | NOMO1 [2] | P12-Ichikawa [3] | SEM cells [1]
HPLM + 10% dialyzed FBS | 461 | 448 | 452
RPMI 5 mM glucose + 10% FBS | 471 | 459 | 463
RPMI 5 mM glucose + 10% dialyzed FBS | 464 | 466 | 462

cell viability [%]
Details | NOMO1 [5] | P12-Ichikawa [6] | SEM cells [4]
HPLM + 10% dialyzed FBS, 0.000781 µM | 90.8 | 93.1 | 90
HPLM + 10% dialyzed FBS, 0.00234 µM | 100 | 100 | 92.3
HPLM + 10% dialyzed FBS, 0.00702 µM | 103 | 104 | 99.1
HPLM + 10% dialyzed FBS, 0.0211 µM | 113 | 113 | 102
HPLM + 10% dialyzed FBS, 0.0632 µM | 96.1 | 98.8 | 104
HPLM + 10% dialyzed FBS, 0.19 µM | 113 | 101 | 99.9
HPLM + 10% dialyzed FBS, 0.569 µM | 118 | 106 | 95.6
HPLM + 10% dialyzed FBS, 1.71 µM | 104 | 110 | 104
HPLM + 10% dialyzed FBS, 5.12 µM | 111 | 104 | 101
HPLM + 10% dialyzed FBS, 15.4 µM | 114 | 111 | 97.1
HPLM + 10% dialyzed FBS, 46.1 µM | 110 | 114 | 111
RPMI 5 mM glucose + 10% FBS, 0.000781 µM | 86.5 | 83.1 | 99.7
RPMI 5 mM glucose + 10% FBS, 0.00234 µM | 107 | 84.3 | 86.2
RPMI 5 mM glucose + 10% FBS, 0.00702 µM | 119 | 101 | 109
RPMI 5 mM glucose + 10% FBS, 0.0211 µM | 109 | 107 | 105
RPMI 5 mM glucose + 10% FBS, 0.0632 µM | 101 | 115 | 122
RPMI 5 mM glucose + 10% FBS, 0.19 µM | 108 | 104 | 115
RPMI 5 mM glucose + 10% FBS, 0.569 µM | 114 | 107 | 131
RPMI 5 mM glucose + 10% FBS, 1.71 µM | 113 | 108 | 101
RPMI 5 mM glucose + 10% FBS, 5.12 µM | 114 | 110 | 124
RPMI 5 mM glucose + 10% FBS, 15.4 µM | 105 | 101 | 98.8
RPMI 5 mM glucose + 10% FBS, 46.1 µM | 109 | 99.9 | 94.6
RPMI 5 mM glucose + 10% dialyzed FBS, 0.000781 µM | 94.6 | 90.8 | 99.5
RPMI 5 mM glucose + 10% dialyzed FBS, 0.00234 µM | 105 | 93.5 | 105
RPMI 5 mM glucose + 10% dialyzed FBS, 0.00702 µM | 116 | 99.8 | 101
RPMI 5 mM glucose + 10% dialyzed FBS, 0.0211 µM | 110 | 102 | 113
RPMI 5 mM glucose + 10% dialyzed FBS, 0.0632 µM | 111 | 100 | 104
RPMI 5 mM glucose + 10% dialyzed FBS, 0.19 µM | 116 | 104 | 104
RPMI 5 mM glucose + 10% dialyzed FBS, 0.569 µM | 130 | 104 | 108
RPMI 5 mM glucose + 10% dialyzed FBS, 1.71 µM | 107 | 98.9 | 121
RPMI 5 mM glucose + 10% dialyzed FBS, 5.12 µM | 116 | 104 | 124
RPMI 5 mM glucose + 10% dialyzed FBS, 15.4 µM | 111 | 110 | 90.6
RPMI 5 mM glucose + 10% dialyzed FBS, 46.1 µM | 109 | 96.7 | 109
